Measured values: paper PMC3711119 (European journal of medicinal chemistry, 2013)

System: human neutrophils
Assay: Ca2+ mobilization
Assay type: cell-based
Conditions: Neutrophil, read-out: Ca2+ flux Efficacy

SMILES | Emax [%]
COc1cccc(Cc2ccnn(CC(=O)Nc3ccc(Br)cc3)c2=O)c1 [Compound 6a, N-(4-Bromophenyl)-2-[5-(3-methoxybenzyl)-6-oxopyridazin-1(6H)-yl]acetamide] | 100
Cc1cc(N)c(=O)n(CC(=O)Nc2ccc(Br)cc2)n1 [Compound 27, N-(4-Bromophenyl)-2-[5-amino-3-methyl-6-oxopyridazin-1(6H)-yl]acetamide] | 100
